Reference: patent US12351570B2 (MERCK PATENT GMBH, priority 2018, dated 2025)

What follows are molecules tested on MDA-MB-231 cells (assay: Extracellular lactate production inhibition after 4 h, MDA-MB-231). Settings: Homo sapiens, MDA-MB-231.
`O=CN(Cc1ccc(-c2ccccc2)nc1)c1ccccc1C#Cc1ccc(C(=O)O)nc1` [Compound 220, 5-[2-(2-{N-[(6-phenylpyridin-3-yl)methyl]formamido}phenyl)-ethynyl]pyridine-2-carboxylic acid] showed an IC50 of 0.1 to 1 µM.
With `COc1ccc(S(C)(=O)=Nc2ccccc2C#Cc2cnc(C(=O)O)c3ccccc23)cc1` (stereo not shown) [Compound 449, 4-[2-(2-{[(4-methoxyphenyl)(methyl)oxo-λ6-sulfanylidene]amino}phenyl)ethynyl]-isoquinoline-1-carboxylic acid] the IC50 was 1 to 100 µM.
In the case of `O=C(O)c1ccc(C#Cc2ccccc2NS(=O)(=O)c2cccc3c2oc2ccccc23)cn1` [Compound 108, 5-[2-(Dibenzofuran-4-sulfonylamino)-phenylethynyl]-pyridine-2-carboxylic acid (5-[2-(2-{8-oxatricyclo[7.4.0.0^2,7]trideca-1(9),2,4,6,10,12-hexaene-6-sulfonamido}phenyl)ethynyl]pyridine-2-carboxylic acid)], the IC50 is reported as 0.01 to 0.1 µM.
Work on `COc1ccc(S(=O)(=O)Nc2cc(C(=O)NCCOCc3ccccc3)ccc2C#Cc2ccc(C(=O)O)nc2)c2ncccc12` [Compound 184, 5-[2-(4-{[2-(benzyloxy)ethyl]carbamoyl}-2-(5-methoxyquinoline-8-sulfonamido)-phenyl)ethynyl]pyridine-2-carboxylic acid] yielded an IC50 of 1 to 100 µM.
Work on `COc1ccc(S(=O)(=O)Nc2ccccc2C#Cc2ccc(C(=O)O)nc2)c(C)c1C` [Compound 42, 5-{2-[2-(4-methoxy-2,3-dimethylbenzenesulfonamido)phenyl]-ethynyl}pyridine-2-carboxylic acid] yielded an IC50 of 0.1 to 1 µM.
In the case of `CNc1ccnc2c(S(=O)(=O)Nc3ccccc3C#Cc3cnc(C(=O)O)cc3C)cccc12` [Compound 425, 4-Methyl-5-[2-(4-methylamino-quinoline-8-sulfonylamino)-phenylethynyl]-pyridine-2-carboxylic acid], the IC50 is reported as 1 to 100 µM.
For `CNc1cc(C#Cc2ccccc2NS(=O)(=O)c2ccc(OC)c3cccnc23)ccc1C(=O)O` [Compound 232, 4-{2-[2-(5-methoxyquinoline-8-sulfonamido)phenyl]ethynyl}-2-(methylamino)benzoic acid], the IC50 was 0.1 to 1 µM.
`COc1ccc(S(=O)(=O)Nc2ccccc2C#Cc2cnc(C(=O)O)c(C)c2)c2ccccc12` [Compound 63, 5-{2-[2-(4-methoxynaphthalene-1-sulfonamido)phenyl]ethynyl}-3-methylpyridine-2-carboxylic acid] showed an IC50 of 0.1 to 1 µM.
With `Cc1ccc(NS(=O)(=O)c2c(C)ccc3cccnc23)c(C#Cc2ccc(C(=O)O)nc2)c1` [Compound 393, 5-[5-Methyl-2-(7-methyl-quinoline-8-sulfonylamino)-phenylethynyl]-pyridine-2-carboxylic acid] the IC50 was 0.001 to 0.01 µM.
`O=CN(Cc1cccc(-c2ccccc2)c1)c1ccccc1C#Cc1ccc(C(=O)O)nc1` [Compound 181, 5-(2-{2-[N-({[1,1′-biphenyl]-3-yl}methyl)formamido]phenyl}-ethynyl)pyridine-2-carboxylic acid] gave an IC50 of 0.1 to 1 µM.
In the case of `CCCOC(=O)c1ccc(C#Cc2ccccc2NS(=O)(=O)c2ccc(OC)c3cccnc23)cn1` [Compound 166, propyl 5-{2-[2-(5-methoxyquinoline-8-sulfonamido)phenyl]ethynyl}pyridine-2-carboxylate], the IC50 is reported as 0.01 to 0.1 µM.
With `Cc1ccc2cccnc2c1S(=O)(=O)Nc1ccccc1C#Cc1ccc(C(=O)O)nc1C` [Compound 100, 6-methyl-5-{2-[2-(7-methylquinoline-8-sulfonamido)phenyl]ethynyl}pyridine-2-carboxylic acid] the IC50 was 1 to 100 µM.
Molecule `O=C(O)c1ccc(C#Cc2ccccc2NS(=O)(=O)c2cccc3ccccc23)c2ccccc12` [Compound 84, 4-{2-[2-(naphthalene-1-sulfonamido)phenyl]ethynyl}-naphthalene-1-carboxylic acid] has an IC50 of 1 to 100 µM.
With `COc1ccc(S(=O)(=O)N(C)c2ccccc2C#Cc2cnc(C(=O)O)cc2C)c2ncccc12` [Compound 123, 4-methyl-5-{2-[2-(N-methyl5-methoxyquinoline-8-sulfonamido)phenyl]ethynyl}pyridine-2-carboxylic acid] the IC50 was 1 to 100 µM.
With `COc1ccc(S(=O)(=O)Nc2ccc(F)cc2C#Cc2ccc(C(=O)NC#N)nc2)c2ccccc12` [Compound 256, N-cyano-5-{2-[5-fluoro-2-(4-methoxynaphthalene-1-sulfonamido)-phenyl]ethynyl}pyridine-2-carboxamide] the IC50 was 1 to 100 µM.
`O=C(O)c1ccc(C#Cc2ccccc2NS(=O)(=O)c2cc3ccccc3s2)cc1` [Compound 276, 4-{2-[2-(1-benzothiophene-2-sulfonamido)phenyl]ethynyl}benzoic acid] was tested, and the IC50 was 1 to 100 µM.
In the case of `CCOc1ccc(S(=O)(=O)Nc2ccccc2C#Cc2ccc(C(=O)O)nc2)cc1NC(C)=O` [Compound 300, 5-{2-[2-(3-acetamido-4-ethoxy-benzenesulfonamido)phenyl]ethynyl}-pyridine-2-carboxylic acid], the IC50 is reported as 0.1 to 1 µM.
`O=C(NO)c1ccc(C#Cc2ccccc2NS(=O)(=O)c2ccc3ccccc3c2)cc1` [Compound 16, N-hydroxy-4-{2-[2-(naphthalene-2-sulfonamido)phenyl]ethynyl}benzamide] gave an IC50 of 1 to 100 µM.
`Cc1ccnc2c(S(=O)(=O)Nc3ccccc3C#Cc3ccc(C(=O)O)nc3)cccc12` [Compound 264, 5-[2-(4-Methyl-quinoline-8-sulfonyl-amino)-phenylethynyl]-pyridine-2-carboxylic acid] gave an IC50 of 0.1 to 1 µM.
For `CNc1cc(C#Cc2ccccc2NS(=O)(=O)c2ccc(OC)c3cccnc23)cnc1C(=O)O` [Compound 212, 5-{2-[2-(5-methoxyquinoline-8-sulfonamido)phenyl]ethynyl}-3-(methylamino)pyridine-2-carboxylic acid], the IC50 was 0.001 to 0.01 µM.
In the case of `O=C(O)c1ccc(C#Cc2ccccc2NS(=O)(=O)C2Cc3ccccc3C2)cc1` [Compound 93, 4-{2-[2-(2,3-dihydro-1H-indene-2-sulfonamido)phenyl]ethynyl}benzoic acid], the IC50 is reported as 1 to 100 µM.
Work on `Cc1cc(S(=O)(=O)Nc2ccccc2C#Cc2ccc(C(=O)O)nc2)c2cc(C)ncc2c1` [Compound 288, 5-{2-[2-(3,7-dimethylisoquinoline-5-sulfonamido)phenyl]ethynyl}pyridine-2-carboxylic acid] yielded an IC50 of 1 to 100 µM.
For `CS(=O)(=Nc1ccccc1C#Cc1cnc(C(=O)O)c2ccccc12)c1cccc2cccnc12` (stereo not shown) [Compound 448, 4-[2-(2-{[methyl(oxo)(quinolin-8-yl)-λ6-sulfanylidene]amino}phenyl)ethynyl]-isoquinoline-1-carboxylic acid], the IC50 was 0.1 to 1 µM.
`COc1ccc(-c2cccc(S(=O)(=O)Nc3ccccc3C#Cc3ccc(C(=O)O)nc3)c2)c(OC)n1` [Compound 125, 5-(2-{2-[3-(2,6-dimethoxypyridin-3-yl)benzenesulfonamido]phenyl}-ethynyl)pyridine-2-carboxylic acid] was tested, and the IC50 was 0.1 to 1 µM.
Molecule `COc1ccc(C#Cc2ccc(C(=O)O)cc2)c(NS(=O)(=O)c2ccc3ccccc3c2)c1` [Compound 19, 4-{2-[4-methoxy-2-(naphthalene-2-sulfonamido)phenyl]ethynyl}benzoic acid] has an IC50 of 0.1 to 1 µM.
`COc1ccc(S(=O)(=O)Nc2ccc(Br)cc2C#Cc2ccc(C(=O)O)nc2)c2ncccc12` [Compound 328, 5-{2-[5-bromo-2-(5-methoxyquinoline-8-sulfonamido)phenyl]ethynyl}pyridine-2-carboxylic acid] gave an IC50 of 0.001 to 0.01 µM.
`NCCOCCOCCOCCOc1ccnc2c(S(=O)(=O)Nc3ccccc3C#Cc3cnc(C(=O)O)c4ccccc34)cccc12` [Compound 443, 4-(2-{2-[4-(2-{2-[2-(2-aminoethoxy)ethoxy]ethoxy}ethoxy)quinoline-8-sulfonamido]phenyl}-ethynyl)isoquinoline-1-carboxylic acid] gave an IC50 of 1 to 100 µM.
Work on `CNc1ccnc2c(S(=O)(=O)Nc3ccccc3C#Cc3cnc(C(=O)O)cc3OC)cccc12` [Compound 419, 4-Methoxy-5-[2-(4-methylamino-quinoline-8-sulfonylamino)-phenylethynyl]-pyridine-2-carboxylic acid] yielded an IC50 of 1 to 100 µM.
With `CC(C)Oc1ccnc2c(S(=O)(=O)Nc3ccccc3C#Cc3ccc(C(=O)O)nc3)cccc12` [Compound 349, 5-(2-{2-[4-(propan-2-yloxy)quinoline-8-sulfonamido]phenyl}ethynyl)pyridine-2-carboxylic acid] the IC50 was 0.1 to 1 µM.
`NC(=O)N(Cc1ccc2ccccc2c1)c1ccccc1C#Cc1ccc(C(=O)O)nc1` [Compound 147, 5-[2-(2-{carbamoyl[(naphthalen-2-yl)methyl]amino}phenyl)ethynyl]pyridine-2-carboxylic acid] gave an IC50 of 0.1 to 1 µM.
Work on `O=CN(CCc1cccc2ccccc12)c1ccccc1C#Cc1ccc(C(=O)O)nc1` [Compound 200, 5-[2-(2-{N-[2-(naphthalen-1-yl)ethyl]-formamido}phenyl)ethynyl]pyridine-2-carboxylic acid] yielded an IC50 of 0.1 to 1 µM.
In the case of `O=C(O)c1ccc(C#Cc2cc(Cl)ccc2NS(=O)(=O)c2ccc(Cl)cc2)cn1` [Compound 280, 5-{2-[5-chloro-2-(4-chlorobenzene-sulfonamido)phenyl]ethynyl}pyridine-2-carboxylic acid], the IC50 is reported as 1 to 100 µM.
`O=CN(Cc1ccc(-c2ccccc2)cc1)c1ccccc1C#Cc1ccc(C(=O)O)nc1` [Compound 183, 5-(2-{2-[N-({[1,1′-biphenyl]-4-yl}methyl)formamido]phenyl}-ethynyl)pyridine-2-carboxylic acid] gave an IC50 of 0.01 to 0.1 µM.
Molecule `O=C(O)c1ccc(C#Cc2ccccc2NC(=O)N2CCCc3cccnc32)cn1` [Compound 151, 5-(2-{2-[(1,2,3,4-tetrahydro-1,8-naphthyridine-1-carbonyl)amino]phenyl}-ethynyl)pyridine-2-carboxylic acid] has an IC50 of 0.1 to 1 µM.
`COC(=O)c1ccc(C#Cc2ccccc2NS(=O)(=O)c2cccc(-c3cccnc3)c2)cn1` [Compound 131, methyl 5-(2-{2-[3-(pyridin-3-yl)benzenesulfonamido]phenyl}-ethynyl)pyridine-2-carboxylate] showed an IC50 of 0.1 to 1 µM.
`O=C(O)c1ccc(C#Cc2ccccc2S(=O)(=O)Nc2ccccc2)cn1` [Compound 439, 5-{2-[2-(phenylsulfamoyl)phenyl]ethynyl} pyridine-2-carboxylic acid] showed an IC50 of 1 to 100 µM.
With `CNc1cc(C#Cc2ccccc2NS(=O)(=O)c2ccc(OC)c(C)c2C)cnc1C(=O)O` [Compound 378, 5-{2-[2-(4-methoxy-2,3-dimethyl-benzenesulfonamido)phenyl]ethynyl}-3-(methylamino)pyridine-2-carboxylic acid] the IC50 was 0.01 to 0.1 µM.
